Test results published in ChEMBL document CHEMBL1201862, “PubChem BioAssay data set” (2004).
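48-hour exposure; five concentrations; linearly interpolated endpoints. The concentration for 50% growth inhibition is given as GI50.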 Active and inactive are the calls of the source. No stated cut-off is given here; in the data, active = GI50 up to about 1.1 µM and inactive = higher.

Tests used:
Test in all cases: NCI-60 cell line screen, 48 h
TK-10 = test system: TK-10
A498 = test system: A498
HL-60 = test system: HL-60
UACC-62 = test system: UACC-62
XF498 = test system: XF498
OVCAR-4 = test system: OVCAR-4
SF-295 = test system: SF-295
786-0 = test system: 786-0
RXF 393 = test system: RXF 393
U-251 = test system: U-251
SK-MEL-5 = test system: SK-MEL-5
SN12C = test system: SN12C
HCT-116 = test system: HCT-116
SW-620 = test system: SW-620
HCC 2998 = test system: HCC 2998
EKVX = test system: EKVX
COLO 205 = test system: COLO 205
M14 = test system: M14
KM-20L2 = test system: KM-20L2
LXFL 529 = test system: LXFL 529
OVCAR-8 = test system: OVCAR-8
KM12 = test system: KM12
NCI-H522 = test system: NCI-H522
IGROV-1 = test system: IGROV-1
OVCAR-3 = test system: OVCAR-3
SF-268 = test system: SF-268
SNB-78 = test system: SNB-78
SF-539 = test system: SF-539
OVCAR-5 = test system: OVCAR-5
SK-OV-3 = test system: SK-OV-3
UO-31 = test system: UO-31
NCI-H23 = test system: NCI-H23
A549 = test system: A549
SNB-75 = test system: SNB-75
HOP-62 = test system: HOP-62
MOLT-4 = test system: MOLT-4
HOP-18 = test system: HOP-18
SK-MEL-2 = test system: SK-MEL-2
DLD-1 = test system: DLD-1
RXF 631 = test system: RXF 631
LOX IMVI = test system: LOX IMVI
CAKI-1 = test system: CAKI-1
NCI-H460 = test system: NCI-H460
Malme-3M = test system: Malme-3M
SK-MEL-28 = test system: SK-MEL-28
DMS-114 = test system: DMS-114
UACC-257 = test system: UACC-257
HOP-92 = test system: HOP-92
DMS-273 = test system: DMS-273
M19-MEL = test system: M19-MEL
HCT-15 = test system: HCT-15
CCRF-CEM = test system: CCRF-CEM
K562 = test system: K562
SNB-19 = test system: SNB-19
NCI-H226 = test system: NCI-H226
HT-29 = test system: HT-29
ACHN = test system: ACHN

## COc1cc2c(cc1OCc1ccccc1)CNCC2
TK-10
  GI50: > 100 µM (inactive)
A498
  GI50: > 100 µM (inactive)
HL-60
  GI50: 70.3 µM (inactive)
UACC-62
  GI50: > 100 µM (inactive)
XF498
  GI50: > 100 µM (inactive)
OVCAR-4
  GI50: > 100 µM (inactive)
SF-295
  GI50: > 100 µM (inactive)
786-0
  GI50: > 100 µM (inactive)
RXF 393
  GI50: > 100 µM (inactive)
U-251
  GI50: > 100 µM (inactive)
SK-MEL-5
  GI50: > 100 µM (inactive)
SN12C
  GI50: > 100 µM (inactive)
HCT-116
  GI50: > 100 µM (inactive)
SW-620
  GI50: 24.3 µM (inactive)
HCC 2998
  GI50: > 100 µM (inactive)
EKVX
  GI50: > 100 µM (inactive)
COLO 205
  GI50: > 100 µM (inactive)
M14
  GI50: > 100 µM (inactive)
KM-20L2
  GI50: > 100 µM (inactive)
LXFL 529
  GI50: > 100 µM (inactive)
OVCAR-8
  GI50: > 100 µM (inactive)
KM12
  GI50: > 100 µM (inactive)
NCI-H522
  GI50: > 100 µM (inactive)
IGROV-1
  GI50: > 100 µM (inactive)
OVCAR-3
  GI50: > 100 µM (inactive)
SF-268
  GI50: > 100 µM (inactive)
SNB-78
  GI50: > 100 µM (inactive)
SF-539
  GI50: > 100 µM (inactive)
OVCAR-5
  GI50: > 100 µM (inactive)
SK-OV-3
  GI50: > 100 µM (inactive)
UO-31
  GI50: > 100 µM (inactive)
NCI-H23
  GI50: > 100 µM (inactive)
A549
  GI50: > 100 µM (inactive)
SNB-75
  GI50: > 100 µM (inactive)
HOP-62
  GI50: > 100 µM (inactive)
MOLT-4
  GI50: > 100 µM (inactive)
HOP-18
  GI50: > 100 µM (inactive)
SK-MEL-2
  GI50: > 100 µM (inactive)
DLD-1
  GI50: > 100 µM (inactive)
RXF 631
  GI50: > 100 µM (inactive)
LOX IMVI
  GI50: 91.6 µM (inactive)
CAKI-1
  GI50: > 100 µM (inactive)
NCI-H460
  GI50: > 100 µM (inactive)
Malme-3M
  GI50: > 100 µM (inactive)
SK-MEL-28
  GI50: > 100 µM (inactive)
DMS-114
  GI50: > 100 µM (inactive)
UACC-257
  GI50: > 100 µM (inactive)
HOP-92
  GI50: 23.6 µM (inactive)
DMS-273
  GI50: > 100 µM (inactive)
M19-MEL
  GI50: > 100 µM (inactive)
HCT-15
  GI50: > 100 µM
CCRF-CEM
  GI50: > 100 µM (inactive)
K562
  GI50: > 100 µM (inactive)
SNB-19
  GI50: > 100 µM (inactive)
NCI-H226
  GI50: > 100 µM (inactive)
HT-29
  GI50: > 100 µM (inactive)
ACHN
  GI50: > 100 µM (inactive)
